The values below come from patent US20250243520A1, “PRODUCTION METHOD FOR L-CYCLIC AMINO ACIDS” (UBE CORPORATION, priority 2019, published 2025).

The target of experiment [1] is T1, Pseudomonas putida PipC2 reductase dpkA (Pseudomonas putida, UniProt Q5FB93). As to the kind of experiment: Literature kinetics of PipC2 reductase dpkA (Muramatsu et al., 2005). It counts as biochemical. Particulars: Table 5; literature value; molecular weight 35954.
The test system of experiment [2] is Morus alba imino acid (imine) reductase MaP2CR, GST-fused, SEQ ID NO: 10 (MaP2CR: SEQ ID NO: 4). As to the kind of experiment: Analysis of enzymatic catalytic activity: reduction of PipC2 with varied NADPH, absorbance at 340 nm (MaP2CR). Format: biochemical.
Experiment [3] addresses T1, Pseudomonas putida PipC2 reductase dpkA. Details: NADP Vmax: unit not given here. The conditions noted are these: cited from earlier work.
In experiment [4] the test system is Lathyrus japonicus imino acid (imine) reductase LjP2CR, GST-fused, SEQ ID NO: 12 (LjP2CR: SEQ ID NO: 6). Kind of experiment: Analysis of enzymatic catalytic activity: reduction of PipC2 with varied NADPH, absorbance at 340 nm (LjP2CR). It counts as biochemical.
A short description of experiment [5]: Enzyme reaction with PipC2 enzyme synthesis solution and *NADPH; products analysed by LCMS and chiral HPLC. Format: biochemical. The conditions noted are these: 10 mM *NADPH, 30° C., 120 minutes. As for the experimental part: An enzyme reaction was carried out using each enzyme solution (purified P2CR recombinant enzyme solution) obtained in Example 1. The reaction was carried out using a 1.5 mL Eppendorf tube as the reaction vessel, and using each enzyme reaction solution in a volume of 100 μL. Since PipC2 which serves as the substrate is not commercially available, one obtained from L-lysine by enzyme synthesis, using the aminotransferase MaALDI obtained in Reference Example 1 to be described later, was used.
The enzyme reaction was carried out using a shaking incubator (manufactured by AS ONE Corporation), at a reaction temperature of 30° C. with shaking at 1,000 rpm. The reaction time was set to 120 minutes. Heating was performed at a reaction temperature of 98° C. for five minutes to inactivate the enzyme, and the reaction was terminated. Subsequently, the reaction solution was centrifuged at 15,000 rpm at room temperature for 10 minutes, and the resulting supernatant was used as a PipC2 enzyme synthesis solution.
Thereafter, the reaction was carried out under the same conditions as the reaction using the enzyme MaALDI described above, to obtain an enzyme reaction product.
Each of the enzyme reaction products was analyzed by liquid chromatography-mass spectrometry (LCMS). First, each sample (enzyme reaction product) was subjected to a derivatization treatment. Using AccQ·Tag Ultra Derivatization Kit (manufactured by Waters Corporation), a mixture of each sample was prepared according to the composition shown in Table 3. The derivatizating reagent solution was added at last. After mixing, the mixture was incubated at 55° C. for 10 minutes.
Each sample which had been subjected to the derivatization treatment was diluted two-fold with pure water, and used as a sample for LCMS analysis.
When the activities of the enzyme reaction products were analyzed by LCMS analysis, it was confirmed that the products had the same retention time as that of L-PipA as the standard, and that novel peaks of the MS pattern were observed. Further, it was unable to detect PipA in the control. […]

[6] abbreviates: Table 5, values determined by ANEMONA, GST-fused protein.
The mark [7] stands for this setting: Table 5, values determined by ANEMONA, GST-fused protein, read-out: NADP Km.

Like-named read-outs stand apart in the source and are kept apart here.

T1 sequence (Q5FB93 whole entry, the tested form may be a part): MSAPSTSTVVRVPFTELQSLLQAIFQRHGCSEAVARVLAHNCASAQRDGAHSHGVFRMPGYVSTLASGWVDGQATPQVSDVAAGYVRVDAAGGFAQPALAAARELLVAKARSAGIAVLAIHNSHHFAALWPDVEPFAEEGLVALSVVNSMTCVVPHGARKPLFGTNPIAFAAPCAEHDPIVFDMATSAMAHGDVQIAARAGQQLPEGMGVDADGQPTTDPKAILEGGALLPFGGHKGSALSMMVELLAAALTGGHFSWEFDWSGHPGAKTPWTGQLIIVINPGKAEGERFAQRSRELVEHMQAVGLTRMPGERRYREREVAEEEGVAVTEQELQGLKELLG

`NC(=O)C1=CN([C@@H]2O[C@H](COP(=O)(O)OP(=O)(O)OC[C@H]3O[C@@H](n4cnc5c(N)ncnc54)[C@H](OP(=O)(O)O)[C@@H]3O)[C@@H](O)[C@H]2O)C=CC1` [NADPH, reduced nicotinamide adenine dinucleotide phosphate]: the “Activity per one molecule of enzyme kcat” value was found to be 0.132 s⁻¹ in experiment [1]; 0.0217 s⁻¹ in experiment [2] (Table 5, GST-fused protein, molecular weight 61792); 0.198 s⁻¹ in experiment [4] (Table 5, GST-fused protein, molecular weight 63449). The Vmax (in general, the rate approached at saturating substrate) in experiment [2] (Hanes-Woolf plot, NADPH 0.5-80 μM, Tris-HCl pH 7.2) is reported as 24.00 nmol/min/mg; in experiment [2] (nonlinear regression by ANEMONA, NADPH 0.5-80 μM, Tris-HCl pH 7.2), 21.2 nmol/min/mg; in experiment [3] (Muramatsu et al. 2005), 220 nmol/min/mg; in experiment [4] (Hanes-Woolf plot, NADPH 10-500 μM, Tris-HCl pH 7.2), 199.55 nmol/min/mg; in experiment [4] (nonlinear regression by ANEMONA, NADPH 10-500 μM, Tris-HCl pH 7.2), 187.3 nmol/min/mg. Besides, the Km (usually the concentration of substrate that gives half-maximal velocity) in experiment [2] (Hanes-Woolf plot, NADPH 0.5-80 μM, Tris-HCl pH 7.2, read-out: Km) is 6.16 µM; in experiment [2] (setting [7]), 3.6 µM; in experiment [2] (nonlinear regression by ANEMONA, NADPH 0.5-80 μM, Tris-HCl pH 7.2, read-out: Km), 3.57 µM; in experiment [3] (Muramatsu et al. 2005, read-out: Km), 140 µM; in experiment [3] (Table 5, literature value, read-out: NADP Km) it was 140 µM; in experiment [4] (Hanes-Woolf plot, NADPH 10-500 μM, Tris-HCl pH 7.2, read-out: Km), 170 µM. In addition, the Km in experiment [4] (setting [7]) was determined as 155 µM; in experiment [4] (nonlinear regression by ANEMONA, NADPH 10-500 μM, Tris-HCl pH 7.2, read-out: Km), 155 µM. Also, the “NADP Vmax” value is on record as 21 in experiment [2] (setting [6]); 220 in experiment [3] (Table 5, literature value); 187 in experiment [4] (setting [6]).

B1: MaP2CR: imino acid reductase derived from Morus alba, SEQ ID NO: 4; GST-fused form SEQ ID NO: 10 (protein, listed as Morus alba)
chain: MASTTTAITSPIFITTQSFHTILSRQTLMDHFHSSLPTVSASLSTPLRQNHAVSPTSSLLLMPSWSTSPSLPYIGVKLVTYFPQSSTLSLPGIHASYVLFSSATGQTLASMDGTALTLFRTSCVSGLASRILARDDSKVLVMIGAGALAPHLIKAHLTARPGLERVVIWNRTVEKARNLAEQLQQSSGLDGVCFESNGCLEEVVGMGDIVSCATNSEAPLVKGQKLKPGAHLDLVGSFKHSMRECDDEAIQRGRIFVDNEAALVEAGELVGAFERGVITKEDIGGNLVELIMGEKVGRRDSEEVTVFKSVGSAAVDILAAQLVYETYLQQNN
Take B1: the “ability to reduce PipC2 to convert to PipA (LCMS of enzyme reaction products)” value (from here on “ability to reduce PipC2 to convert”) in experiment [5] is given as “have the ability to reduce PipC2 to convert to PipA”.

B2: AtP2CR: imino acid reductase derived from Arabidopsis thaliana, SEQ ID NO: 2; GST-fused form SEQ ID NO: 8 (protein, listed as Arabidopsis thaliana)
chain: MAALPVFIPAESFPSILSHETLINHFRTNLPKHSSTITSPVRQNYTVSSPSSLLLMPSWSSSSSLPYMGVKLVTYFPHNSSQNLPGIHGSYTLFSSTTGQTLATMDGTVLTLYRTSSVSGLGSKILARDDSQVLIMVGSGALAPHLIKSHLAARPSLRRVIIWNRTPQRAQELAETLSKDPQHKEISFDSHDSLDQIIPLGDIISCATNSTVPLVKGEFLKPGTHLDLAGSFSHEMKECDDNAIQRGSVFVDNDTAMIEAGELAGAFERGVIKREDICGNLVELIKGDKEGRKSSTDITVFKSVGSGTVDLLTAQLVHETYLSRC
For the molecule B2, in experiment [5], the “ability to reduce PipC2 to convert” value is reported as “have the ability to reduce PipC2 to convert to PipA”.

B3: LjP2CR: imino acid reductase derived from Lathyrus japonicus, SEQ ID NO: 6; GST-fused form SEQ ID NO: 12 (protein, listed as Lathyrus japonicus)
chain: MASANKDQKTTNTVSSSSSSSSPIFISTENLQTILTHQTLMKHIDSNLPKVSTFLQTPIRQHYSLSPSSSLLLMPSWSSSSSFPYVGVKLVTHFPQNSSINLPGVQGSYVLFNSTTGQTLASMDSTELTLYRTSCVSGLASRYLSRDDSEVLVMVGAGPLAPHLIRAHFSARPSLRKVLIWNRTVEKAEALAKNLRESDEFSLSGLSFEGCGCLNEVVGLGDIVSCATNSEMALVKGERLKVGAHLDLVGSFKPSMKECDDEALKRGKVFVDNEAALVEAGELVGAFERGVIKEDEIEANLVELIRGDKVGRRSSEEITVFKSVGSAVVDMLAAQFVYESYIGK
On to B3, for which the “ability to reduce PipC2 to convert” value in experiment [5] is given as “have the ability to reduce PipC2 to convert to PipA”.
